Experimental data as given in patent US11566260B2, “Potentiating agents for protecting plants from fungal infections” (UNIVERSITE D'ANGERS, priority 2012, dated 2023).

How the values were obtained:
Alternaria brassicicola = test: In vivo efficacy on cabbage leaves inoculated with Alternaria brassicicola; conditions: 25 μM chelerythrin in inoculum; intact or prewounded B. oleracea cv Bartolo leaves; 6 dpi; vs DMSO side
Procedure: Example 2 discloses a protocol for determining the in vivo efficacy of the composition of the invention, comprising a potentiating amount of chelerythrin (25 μM), as determined in Example 1.
5 μL drops of Alternaria brassicicola conidia suspension (10^5 to 10^3 conidia/mL) were inoculated on intact or prewounded (i.e wherein the synthesis of plant defense molecules such as Brassinin was naturally triggered by the aggression) leaves of B. oleracea cv Bartolo plants at stages 4-6 leaves per plant. Inocula were deposited on the left and right sides symmetrically from the central vein: inocula comprising 25 μM of chelerythrin were deposited on the right side, and inocula comprising DMSO were deposited on the left side. The plants were then maintained under saturing humidity (100% relative humidity).

[1] = tested on: BY4743 strain of Saccharomyces cerevisiae; test: Test D: growth of S. cerevisiae BY4743 in normal and high osmotic pressure conditions; type: cell-based
Procedure: Test D is based on the fact that the protein Pkc1 is implied in the CWI pathway. In a situation where the CWI pathway is impaired, growth of fungal cells is less affected by a high osmotic pressure. Consequently, in Test D, a S. cerevisiae strain is cultured in conditions of high osmotic pressure, in the presence or in absence of the tested compound. If said compound is a Pkc1 inhibitor, it will inhibit the growth of cells in normal osmotic pressure conditions, but not, or less, in high osmotic pressure conditions. Test D is carried out in Example 3.
The growth of a BY4743 strain of Saccharomyces cerevisiae on a liquid SD medium comprising increasing concentrations of chelerythrin (0, 10, 15, 20 or 25 μM) was monitored and compared to the growth of the same strain on a liquid SD medium containing 1M of sorbitol (high osmotic pressure conditions) in presence of increasing concentrations of chelerythrin.
Growth was measured by spectrometry (optic density: 600 nm) Inhibition of growth was assessed by comparison of the area under the curves.

SMILES: COc1ccc2c(c[n+](C)c3c4cc5c(cc4ccc23)OCO5)c1OC [Chelerythrin]
- fungal infection of cabbage leafs (Alternaria brassicicola): limits in vivo the fungal infection
- Area under the curve ([1]; SD + Sorbitol (1M, high osmotic pressure), 10 μM chelerythrin): 5.2
- Area under the curve ([1]; SD + Sorbitol (1M, high osmotic pressure), 15 μM chelerythrin): 5.0
- Area under the curve ([1]; SD + Sorbitol (1M, high osmotic pressure), 20 μM chelerythrin): 2.0
- Area under the curve ([1]; SD medium, 10 μM chelerythrin): 14.3
- Area under the curve ([1]; SD medium, 15 μM chelerythrin): 11.8
- Area under the curve ([1]; SD medium, 20 μM chelerythrin): 10.4
- Area under the curve ([1]; SD medium, 25 μM chelerythrin): 8.1
- inhibition at 10 µM ([1]; Saccharomyces cerevisiae, SD + Sorbitol (1M, high osmotic pressure), 10 μM chelerythrin): -3%
- inhibition at 15 µM ([1]; Saccharomyces cerevisiae, SD + Sorbitol (1M, high osmotic pressure), 15 μM chelerythrin): 1%
- inhibition at 20 µM ([1]; Saccharomyces cerevisiae, SD + Sorbitol (1M, high osmotic pressure), 20 μM chelerythrin): 0%
- inhibition at 10 µM ([1]; Saccharomyces cerevisiae, SD medium, 10 μM chelerythrin): 10%
- inhibition at 15 µM ([1]; Saccharomyces cerevisiae, SD medium, 15 μM chelerythrin): 26%
- inhibition at 20 µM ([1]; Saccharomyces cerevisiae, SD medium, 20 μM chelerythrin): 35%
- inhibition at 25 µM ([1]; Saccharomyces cerevisiae, SD medium, 25 μM chelerythrin): 49%
